Patent US20020061839A1, “Serine peptidase modulators” (priority 1998, published 2002)
Entries after “also recorded” stand apart in the source; their conditions may differ.

Columns and labels:
[1] = target: T1, Prolyl oligopeptidase (Homo sapiens, UniProt P48147); assay: Inhibition of prolyl oligopeptidase (PO), Z-Gly-Pro-AMC substrate; format: biochemical; settings: PO from human platelets, 20 min at 37° C.
T1 construct: Prolyl oligopeptidase was purified from human platelets; from tissue; host or cells: human platelets
T1 sequence (P48147 1-710): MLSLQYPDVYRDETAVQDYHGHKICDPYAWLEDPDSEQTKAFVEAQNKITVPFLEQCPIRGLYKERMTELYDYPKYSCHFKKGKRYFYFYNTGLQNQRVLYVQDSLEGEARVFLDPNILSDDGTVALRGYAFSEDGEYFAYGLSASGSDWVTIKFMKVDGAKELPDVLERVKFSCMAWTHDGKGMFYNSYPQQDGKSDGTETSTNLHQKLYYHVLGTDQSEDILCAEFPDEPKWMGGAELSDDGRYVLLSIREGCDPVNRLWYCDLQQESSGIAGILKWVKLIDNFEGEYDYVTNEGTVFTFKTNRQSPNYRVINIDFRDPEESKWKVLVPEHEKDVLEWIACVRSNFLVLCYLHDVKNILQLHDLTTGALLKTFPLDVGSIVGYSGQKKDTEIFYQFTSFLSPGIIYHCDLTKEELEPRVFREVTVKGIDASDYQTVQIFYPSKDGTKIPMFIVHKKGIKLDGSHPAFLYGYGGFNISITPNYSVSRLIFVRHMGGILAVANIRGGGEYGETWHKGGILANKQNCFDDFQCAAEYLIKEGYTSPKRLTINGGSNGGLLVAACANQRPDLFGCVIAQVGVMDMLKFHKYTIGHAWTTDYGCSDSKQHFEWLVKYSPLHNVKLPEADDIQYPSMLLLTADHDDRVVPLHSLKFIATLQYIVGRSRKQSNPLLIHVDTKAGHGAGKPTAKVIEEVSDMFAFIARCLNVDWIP
Procedure: Prolyl oligopeptidase was purified from human platelets and the enzyme activity was measured using Z—Gly—Pro—AMC (4.4 mM) as the substrate in a K-phosphate buffer 100 mM, pH 7.5 containing 1 EM EDTA, 1 mM dithiothreitol and 1 mM NaN3. The incubation was carried out during 20 min at 37° C. The reaction was stopped by the addition of 5 volumes 1.5 M acetic acid. Fluorescence was measured at 370 and 440 nm as excitation and emission wavelengths respectively. The inhibitors were added at concentrations varying between 1 μM and 1 mM.

[2] = Systemic and local toxicity in rats; format: in vivo; settings: for acute systemic or local toxicity: daily subcutaneous injection of 50 mg/kg (initial dose 100 mg/kg)
Procedure: They received standard diet and water ad lib. […] Blood was sampled from the central ear artery. Rats and mice were injected subcutaneously or intraperitoneally.

[3] = tested on: human peripheral blood mononuclear cells (PBMC); assay: In vitro cytotoxicity in PBMC, trypan blue exclusion; format: cell-based; settings: freshly isolated mononuclear cells or phytohemagglutinin stimulated blasts, concentrations up to 100 μM
Procedure: Peripheral blood mononuclear cells were isolated from buffy coats (obtained from the blood transfusion center of Antwerp). After dilution (¼) in phosphate buffer saline (PBS), cells were layered onto Ficoll-Hypaque density gradient (Pharmacia, Uppsala, Sweden) and centrifuged at room temperature at 550×g during 20 min. The interfaces were collected and washed 3 times in RPMI-1640. Finally the cells were resuspended at 1×10^6 cells/mL in RPMI-1640 containing 10% heat-inactivated foetal calf serum, and antibiotics (penicillin/streptomycin) (Gibco). These freshly isolated cells were used immediately for inhibitor studies or first stimulated with phytohaemagglutinin (Murex diagnostics) at 1 μg/mL during 3 days at 37° C. in a 5% CO2 humidified incubator. Inhibitor (stock solution at −80° C. in phosphate buffer, diluted ex tempore in RPMI-1640) or vehicle alone was added to the cells (5×10^6/test) at different concentrations. After overnight incubation at 37° C., an aliquot was taken for cytotoxicity evaluation by 0.4% trypan blue exclusion. The remaining cells were washed 3 times in PBS and the final cell pellet was solubilised in 200 μL PBS containing 1% v/v Triton X-100 and 100 KIU/mL aprotinin (Bayer) and centrifuged during 10 min at 20000×g. Supernatants were used immediately for enzyme assay and protein determination by the Bradford micro-assay. Specific activities (U/g protein) are compared and the % inhibition is given toward control samples without inhibitor.

[4] = Side effects in rabbits after intravenous injection; format: in vivo; settings: single intravenous injection of 0.2 mg/kg
Procedure: […]. They received standard diet and water ad lib. […] Blood was sampled from the central ear artery. Rats and mice were injected subcutaneously or intraperitoneally.

[5] = in vitro; settings: human, plasma
[6] = Graft acceptance upon alloantigen challenge; format: in vivo, rats; settings: monotherapy
[7] = target: Dipeptidyl peptidase II; settings: DPP II semi-purified from rabbit kidney, pH 5.5, 20 minutes at 37° C.
Procedure: After incubation during 20 minutes at 37° C., the reaction was stopped by the addition of 10 fold excess sodium-acetate pH 3.6.

**Q.** For `C[C@H](NC(=O)OCc1ccccc1)C(=O)Nc1ccc(OP(=O)(Oc2ccc(NC(=O)[C@H](C)NC(=O)OCc3ccccc3)cc2)C2CCCN2C(=O)[C@@H]2CCCN2C(=O)OCc2ccccc2)cc1` (mixture of isomers) [10j, Di[4-(N-benzyloxycarbonyl-(S)-alanylamino)phenyl]-1-(benzyloxycarbonyl-(S)-prolyl)pyrrolidine-2(R,S)-phosphonate], which melting point is on record?
**A.** Its melting point is 200 to 203 °C.

**Q.** What about the IC50 [1] of the same compound?
**A.** The IC50 was over 500 µM.

**Q.** What does the source list for `O=C1CC[C@@H](C(=O)Nc2ccc(OP(=O)(Oc3ccc(NC(=O)[C@@H]4CCC(=O)N4)cc3)C3CCCN3C(=O)[C@@H]3CCCN3C(=O)OCc3ccccc3)cc2)N1` (mixture of isomers) [10k, Di[4-((S)-pyroglutamylamino)phenyl]-1-(benzyloxycarbonyl-(S)-prolyl)pyrrolidine-2(R,S)-phosphonate]?
**A.** melting point: 170 °C (dec.); IC50 [1]: 9 µM

**Q.** For `CC(=O)Nc1ccc(OP(=O)(Oc2ccc(NC(C)=O)cc2)C2CCCN2C(=O)[C@@H]2CCCN2)cc1.Cl` (mixture of isomers) [11e, Di(4-acetamidophenyl) 1-((S)-prolyl)pyrrolidine-2(R,S)-phosphonate hydrochloride], which “acute systemic or local toxicity” value ([2]; rats, hydrochloride) is on record?
**A.** Its value is “without any sign of acute systemic or local toxicity; also recorded: no acute systemic or local toxicity”.

**Q.** What about the cytotoxicity ([3]; hydrochloride) of the same compound?
**A.** The cytotoxicity was “no cytotoxicity; also recorded: did not show cytotoxicity”.

**Q.** Which results are given for `CCOC(=O)CNC(=O)c1ccc(OP(=O)(Oc2ccc(C(=O)NCC(=O)OCC)cc2)C2CCCN2C(=O)[C@@H]2CCCN2)cc1` (mixture of isomers) [11n, Di{4-[(ethoxycarbonyl)methylaminocarbonyl]phenyl}1-((S)-prolyl)pyrrolidine-2(R,S)-phosphonate]?
**A.** side effects [4]: without side effects; acute systemic or local toxicity ([2]; rats): without any sign of acute systemic or local toxicity; also recorded: no acute systemic or local toxicity; half-life at 1 mM [5]: 0.583 ± 0.0333 h; cytotoxicity [3]: did not show cytotoxicity; also recorded: no cytotoxicity

**Q.** Which results are given for `O=C([C@@H]1CCCN1)N1CCCC1P(=O)(Oc1ccccc1)Oc1ccccc1` (mixture of isomers) [compound 5, diphenyl 1-(S)-prolyl-pyrrolidine-2-(R,S)-phosphonate]?
**A.** systemic toxicity and local ulcerations ([2]; monotherapy): occasionally also caused systemic toxicity and more often local ulcerations; systemic toxicity ([2]; rats, intravenously): adequate inhibition could not be reached without severe systemic toxicity; graft acceptance [6]: significantly prolonged graft acceptance; half-life at 1 mM [5]: 4.17 ± 0.167 h

**Q.** Which half-life at 1 mM [5] does the source give for `Cl.O=C([C@@H]1CCCN1)N1CCC[C@H]1P(=O)(Oc1ccccc1)Oc1ccccc1` [11a (R), Diphenyl 1-((S)-prolyl)pyrrolidine-2(R)-phosphonate hydrochloride] here?
**A.** The half-life at 1 mM was 5 ± 0.5 h.

**Q.** What about the cytotoxicity [3] of the same compound?
**A.** The cytotoxicity was “no satisfactory inhibition of DPP IV activity could be reached without cytotoxic effects”.

**Q.** Which IC50 [7] does the source give for `CC(NC(=O)[C@@H](N)Cc1ccccc1)P(=O)(Oc1ccccc1)Oc1ccccc1` (stereo partly drawn) [Phe-AlaP(OPh)2, Diphenyl 1(R,S)-L-phenylalanyl aminoethane phosphonate] here?
**A.** Its IC50 is 800 µM.

**Q.** Which IC50 [7] does the source give for `CC(NC(=O)[C@@H]1CCCN1)P(=O)(Oc1ccccc1)Oc1ccccc1` (stereo partly drawn) [Pro-AlaP(OPh)2, diphenyl 1(R,S)-L-prolyl aminoethane phosphonate] here?
**A.** The IC50 was 1500 µM.
